Results: patent US9713613B2, “Methods and compositions for the treatment of cancer and related hyperproliferative disorders” (priority 2007, dated 2017)

Tests used:
[1] = tested on: SREBP-2; assay: Western blot analysis of SREBP processing in CHO-K1 cells; format: cell-based, Chinese hamster
Excerpt: (§1) To determine if fatostatin affects the ER-Golgi translocation and proteolytic processing of SREBPs, a reporter assay developed by Sakai et al. (1998) was used. PLAP-BP2 in transfected CHO-K1 cells remains membrane-bound unless it is cleaved by S1P in the Golgi and secreted into the culture medium. In the assay, a secreted alkaline phosphatase, fused with an SREBP-2 fragment lacking the NH2-terminal DNA-binding domain (PLAP-BP2513-1141), permits monitoring of translocation and processing through changes in the fluorescence of a fluorogenic phosphatase substrate (FIG. 18C). When cells were co-transfected with plasmids encoding PLAP-BP2513-1141 and SCAP, PLAP phosphatase was secreted, generating fluorescence signals. […] The fatostatin-mediated inhibition of SREBP activation was confirmed by western blot analysis of SREBPs. […] Similar results were obtained for SREBP-1 (FIG. 22).
Western blot analysis of SREBP processing. […] The protein concentration of each total cell extract was measured (BCA kit; Pierce), after which a 22-33 μg aliquot of cell extract was mixed with 0.25 volume of buffer (250 mM Tris-HCl, pH 6.8, 10% SDS, 25% glycerol, 0.2% (w/v) bromophenol blue, and 5% (v/v) 2-mercaptoethanol), heated for 7 min at 95° C. […]

[2] = tested on: PLAP-BP2; assay: PLAP-BP2 cleavage assay in CHO-K1 cells; format: cell-based, Chinese hamster; details: 20 μM
Excerpt: as §1
PLAP-BP2 Cleavage. On day 0, CHO-K1 cells were plated out onto a 96-well plate in medium A. On day 2, the cells were transiently co-transfected with pCMV-PLAP-BP2(513-1141), pCMV-SCAP and pAc-β-gal, using Lipofectamine reagent (Invitrogen). […]

[3] = tested on: MOLT-4 cells; assay: MOLT-4 cell growth, MTT assay; format: cell-based, human; details: 48 hours
Protocol: 10,000 MOLT-4 cells (FIGS. 35A-35C) and 20,000 RPM18226 cells (FIGS. 35D-35F) were seeded onto 96 well plate in RPMI 1640 medium containing 5% FBS or fat-free charcoal treated serum (FF-FBS) for 24 hours at 37 C. MOLT-4 and RPM18226 cells were treated for additional 48 hours with different concentrations of compound 19 (None control without DMSO, Vehicle with DMSO, 1, 2, 5, 10 and 20 μM in DMSO; RPM18226 cells also were treated with 3 μM in DMSO). At the end of 48 hours cells were subjected to MTT assay to determine viability. Values are depicted as means±SD; *P<0.05.
20,000 MOLT-4 cells (FIGS. 36A-36C) and 20,000 RPM18226 cells (FIGS. 36D-36F) cells were seeded onto 96 well plates in RPMI 1640 Medium containing 5% Fetal bovine serum (FBS) or 5% fat free charcoal treated serum (FF-FBS) for 24 hours at 37 C. Cells then were treated for additional 48 hours with different concentrations of compound 17 (None control without DMSO, Vehicle with DMSO, 1, 2, 3, 5, 10 and 20 μM in DMSO). At the end of the 48 hours treatment cells were subjected to MTT assay to determine viability. Values are depicted as means±SD (n=3); **P<0.001; ***P<0.0001.
MOLT-4 cells were grown at two different conditions under 5% fetal bovine serum (FBS) and under 5% FBS fat free serum (charcoal treated serum). 10,000 Cells were seeded a 96 well plate for 24 hours before starting the treatment with different concentrations of compound 19. Compound 19 dissolved in DMSO was added to cells for 48 hours before determining cell growth using MTT assay. […] Compound 19 inhibited cell growth about 75-80% at 10 and 20 μM under both growth conditions.
MOLT-4 cells were grown at two different conditions under 5% fetal bovine serum (FBS) and under 5% FBS fat free serum (charcoal treated serum). 20,000 cells were seeded into a 96 well plate for 24 hours before starting the treatment with different concentrations of compound 17. Compound 17 dissolved in DMSO was added to cells for 48 hours before determining cell growth using MTT assay. […] Compound 17 inhibited cell growth about 85-100% at 5, 10 and 20 μM under both growth conditions. Under both 5% FBS and 5% FBS fat free sera there was a strong trend of inhibition starting at 1 μM (FIGS. 36B-36C).

[4] = tested on: SUM159 cells; assay: SUM159 cell growth, WST-1 assay, and lipogenic gene expression; format: cell-based, human
Protocol: Cells were seeded onto 96 well plates at a density of 10000 cells/well in 100 ul medium containing 2% charcoal stripped serum. After 24 hours, compound 19 was added to the cells at the indicated concentrations for another 48 hours. Cell viability was determined using WST-1 assay.
Cells seeded onto 96 well plates at a density of 5000 cells/well in 100 μl medium containing 2% charcoal treated serum. After 24 hours different concentrations of compound 19 were added for an additional 48 hours. Cell viability was measured using WST-1 Cell Viability and Proliferation Assay (ScienCell Research Laboratory, Carlsbad Calif.). Changes in expression levels of lipogenic genes mRNA was determined in cells that were treated with 10 μM. […] Insig2 gene which is not known to be regulated by these transcription factors was not affected by the treatment (FIG. 33B).

Compound	amounts of mature and precursor forms of SREBP-2 (western blot) [1]	secretion of PLAP phosphatase (PLAP-BP2 cleavage) [2]	growth inhibition ([3]; 2 and 5 μM, FBS fat free serum)	inhibition of cell growth ([3]; 10 and 20 μM, 5% FBS and 5% FBS fat free)	expression levels of lipogenic genes mRNA under the control of SREBPs ([4]; 10 μM, Insig2 not affected)	cell growth / viability ([4]; different concentrations, 48 hours, 2% charcoal treated serum)
CCCc1cc(-c2nc(-c3ccc(C)cc3)cs2)ccn1 [Compound 1, 2-propyl-4-(4-p-tolylthiazol-2-yl)pyridine]	decreased the amount of the 68 KDa mature form of SREBP-2	decreased	–	–	–	–
CCCc1cc(-c2nc(-c3ccc(NS(C)(=O)=O)cc3)cs2)ccn1 [Compound 19, N-(4-(2-(2-propylpyridin-4-yl)thiazol-4-yl)phenyl)methanesulfonamide]	–	–	30-50%	75-80%	significant downregulation	inhibition of cell growth and a toxic effect
